Source: patent publication US20240327372A1, “PREPARATION OF PHENE[…] […] STEREOISOMERS THEREOF AND PRECURSORS THEREOF” (priority 2022, published 2024)

Columns and labels:
DAT = DAT (Rattus norvegicus (Rat), UniProt P23977); test: [3H]Dopamine uptake inhibition in rat brain synaptosomes; assay type: biochemical; details: DA
Protocol: Materials used were: Neurotransmitters [3H]5-HT (PerkinElmer, NET498001MC) [^3H]Dopamine (PerkinElmer, NET673250UC) [^3H]Norepinephrine (PerkinElmer, NET377250UC); Test Compounds Racemic methylone HCl (Merck, M-140); (R)-methylone HCl (Pisgah Labs); (S)-methylone HCl (Pisgah Labs); Reference Compounds Citalopram (Tocris Bioscience 1427). JHW007 (Tocris Bioscience 4351). Nomifensine (Abcam ab146004).
Synaptosomes were prepared from Sprague Dawley (200-250 g) rat brain regions (hippocampus for NE, striatum for DA and midbrain for 5-HT) using standard protocols. Tissues were dissected, added to sucrose buffer (0.32 M), homogenized with a dounce-homogenizer and centrifuged at 100×g to remove cells and debris. Supernatant was collected and centrifuged 17,000×g for 10 minutes at 4° C. to pellet the synaptosomes. The pellet was resuspended in fresh assay buffer.
Uptake assays were carried out in 96-well plates in a final volume of 250 μL per well. To each well was added 150 μL synaptosomes, 50 μL test, non-specific compound or buffer alone. The plate was incubated at 30° C. for 30 minutes with gentle agitation. 50 μL radiolabeled neurotransmitter in buffer was then added to each well to initiate the uptake. The plate was incubated at 30° C. for a further 5 minutes with gentle agitation. The incubation was stopped by vacuum filtration onto presoaked GF/C filters using a 96-well FilterMate™ harvester, followed by 3 washes with ice-cold wash buffer. Filters were then dried under a warm air stream, sealed in polyethylene, scintillation cocktail added, and the radioactivity counted in a Wallac® TriLux 1450 MicroBeta counter.
For each concentration of drug, non-specific uptake was subtracted from total uptake to give specific uptake. Data was fitted using the non-linear curve fitting routines in Prism® (Graphpad Software Inc) to determine IC50.

SERT = SERT (Rattus norvegicus (Rat), UniProt P31652); test: 5-HT release study; assay type: biochemical
cardiac ion channels = test: In vitro cardiovascular safety screening test (ion channel panel, overall); assay type: cell-based, human; details: whole panel
Protocol: An in vitro cardiovascular safety screening test was run to investigate the effects of racemic methylone and two methylone stereoisomers ((R)-methylone and (S)-methylone) on selected ion channels critically linked to cardiovascular function and activity.
Electrophysiological assays were conducted to profile three compounds ((R)-methylone, (S)-methylone, or racemic methylone) for activities on the ion channel targets specified below using the Qube electrophysiological platform. Where presented, IC50 values were determined by a non-linear, least squares regression analysis. Reference standards were run as an integral part of each assay to ensure the validity of the results obtained.
Ion Channels tested were Eurofins Panel Part Number: CPROFullQB2DR Voltage-Gated Sodium: HEK-Nav1.5 (Peak), HEK-Nav1.5 (Late, Antagonist) Voltage-Gated Potassium: HEK-Kv4.3/KChIP2, CHO-hERG, CHO-KCNQ1/minK Voltage-Gated Calcium: HEK-Cav1.2 Inward-Rectifying Voltage-Gated Potassium: HEK-Kir2.1.

Row | SMILES | IC50 (DAT) | EC50 (SERT) | Effect on the cardiac ion channels tested (cardiac ion channels)
1 | CN[C@@H](C)C(=O)c1ccc2c(c1)OCO2 [(S)-methylone] | 634 nM | 1180 nM | do not directly inhibit the activity of cardiac channels
2 | CN[C@H](C)C(=O)c1ccc2c(c1)OCO2 [(R)-methylone] | 3440 nM | – | do not directly inhibit the activity of cardiac channels
